The subject of data set [1] is S. aureus 1882. The class given is cell-based, Staphylococcus aureus. How it is done:
(§1) MICs were determined to evaluate the antimicrobial activities of the peptides. The bacteria were inoculated into Mueller‐Hinton broth (MHB) medium in advance and placed in a shaker at 37°C until the logarithmic growth phase. The optical density value at OD600 of the bacterial suspension was adjusted to 0.4, and then diluted 1000 times with sterile MHB medium. Subsequently, the peptides with concentrations of 0.25–128 μM were prepared using bovine serum albumin (BSA) solution (0.2% BSA and 0.01% acetic acid) as the solvent on a 96‐well plate. Different concentrations of peptides and bacterial liquids were mixed in equal volumes. MHB medium containing bacteria was used as a positive control. MHB medium without bacteria was used as a negative control. Then, the mixture of peptides and bacteria was cultured in an incubator at 37°C for 18–24 h. The optical density of each well was measured at 492 nm using a microplate reader. The lowest drug concentration corresponding to a culture mixture with an optical density of less than 0.1 is the MIC of the peptide. The assay was repeated three times in duplicate.

Data set [2] has as its system S. aureus 6538. The class given is cell-based, Staphylococcus aureus. The procedure:
as §1

The test system of data set [3] is S. epidermidis 12228. The class given is cell-based, Staphylococcus epidermidis. How it is done:
as §1

In data set [4] the test system is E. coli 25922. The class given is cell-based, Escherichia coli. The procedure:
as §1

In data set [5] the test system is E. coli K88. The class given is cell-based, Escherichia coli. The settings on record: microbroth dilution, MHB, 37°C, 18–24 h, OD492 < 0.1; repeated three times in duplicate. How it is done: as §1
For data set [6], the system named is E. coli K99. It is filed as cell-based, Escherichia coli. The following applies: microbroth dilution, MHB, 37°C, 18–24 h, OD492 < 0.1; repeated three times in duplicate. The procedure: as §1
Data set [7] deals with P. aeruginosa 15442. It is filed as cell-based, Pseudomonas aeruginosa. The procedure:
as §1

The test system of data set [8] is P. aeruginosa 27853. It is filed as cell-based, Pseudomonas aeruginosa. How it is done:
as §1

Data set [9] concerns red blood cells. The class given is cell-based, pig. How it is done:
A series of parameters such as charge number, hydrophobicity, sequence length, and amphipathicity can affect the hemolytic activity of peptides against red blood cells. The minimal hemolytic concentration (MHC) refers to the minimum concentration that causes hemolysis of 10 % of red blood cells, and is often used to evaluate the hemolytic activity of the peptides. Except for SFK3, the percentage of hemolysis at 128 μM was below 5% for all peptides. Hemolysis of the erythrocytes occurred after incubation with Triton X‐100, with complete fragmentation of the erythrocytes and a bright red color of the reaction system (Figure 2B,C and Table S5).
The hemolytic activity of the peptide was calculated by measuring the level of […] released from mammalian red blood cell lysis induced by the peptide, [44]. Fresh porcine blood was collected from the jugular vein and washed with PBS three times, and red blood cells were collected. A red blood cell suspension of 10% (v/v) concentration was prepared in 10 mM PBS (pH = 7.4). After mixing with different concentrations of peptides in equal volume, they were incubated at 37°C for 2 h. Red blood cells treated with PBS and 0.1% Triton X‐100 were used as negative and positive controls, respectively. The assay was repeated three times. After the sample was centrifuged, the supernatant was transferred to a new 96‐well plate, and the optical density at 570 nm was measured using a microplate reader. Hemolysis was calculated as follows: Hemolytic activity(%)=ODtest sample−ODnegative control/ODpositive control−ODnegative control×100%

In data set [10] the test system is S. aureus ATCC 6538. Description: Drug resistance assay, continuous passaging at sub-MIC. It is filed as cell-based, Staphylococcus aureus. How it is done: The fold change in the MIC of peptides and […] against S. aureus ATCC 6538 was measured using the continuous passaging method to evaluate the development of drug resistance. The MIC values of the peptide and vancomycin against S. aureus ATCC 6538 were determined according to the above method, and the solutions in the sub‐MIC wells were aspirated and transferred to a fresh MHB medium for the next round of MIC determination. The procedure lasted for 30 days.

SMILES strings stand for the structures. In brackets after ≈: the same amount, converted by molar mass. Peptide text beside a SMILES is read from it.

On to `CC[C@H](C)[C@H](NC(=O)[C@H](CCCNC(=N)N)NC(=O)[C@H](CO)NC(=O)[C@H](CC(C)C)NC(=O)[C@H](Cc1ccccc1)NC(=O)[C@H](Cc1ccccc1)NC(=O)[C@H](Cc1ccccc1)NC(=O)CNC(=O)CNC(=O)CNC(=O)[C@H](CO)NC(=O)[C@H](C)NC(=O)[C@H](CCCNC(=N)N)NC(=O)[C@@H](NC(=O)[C@H](Cc1c[nH]c2ccccc12)NC(=O)[C@H](Cc1ccc(O)cc1)NC(=O)[C@@H](N)CO)C(C)C)C(=O)N[C@@H](Cc1ccccc1)C(=O)N[C@@H](CCCCN)C(=O)N[C@@H](CCCCN)C(=O)N[C@@H](CCCCN)C(N)=O` [SFK3] (H-SYWVRASGGGFFFLSRIFKKK-NH2), for which the “MIC S. aureus 1882” value in [1] is 1 µM (≈ 2.48 µg/mL). Further, the “MIC S. aureus 6538” value in data set [2] amounted to 2 µM (≈ 4.96 µg/mL). Besides, the “MIC S. epidermidis 12228” value in [3] is greater than 64 µM. Moreover, the “MIC E. coli 25922” value in [4] was greater than 64 µM. The “MIC E. coli K88” value in [5] is 16 µM (≈ 39.7 µg/mL). In data set [6], the “MIC E. coli K99” value was found to be 16 µM (≈ 39.7 µg/mL). Also, the “MIC P. aeruginosa 15442” value in data set [7] is greater than 64 µM. The “MIC P. aeruginosa 27853” value in data set [8] is greater than 64 µM. For the same molecule, the MHC result in data set [9] is on record as “>128 μM”.
With `CC[C@H](C)[C@H](NC(=O)[C@H](CCCNC(=N)N)NC(=O)[C@H](CO)NC(=O)[C@H](CC(C)C)NC(=O)[C@H](Cc1ccccc1)NC(=O)[C@H](Cc1ccccc1)NC(=O)[C@H](Cc1ccccc1)NC(=O)CNC(=O)CNC(=O)CNC(=O)[C@H](CO)NC(=O)[C@H](C)NC(=O)[C@H](CCCNC(=N)N)NC(=O)[C@@H](NC(=O)[C@H](Cc1c[nH]c2ccccc12)NC(=O)[C@H](Cc1ccc(O)cc1)NC(=O)[C@@H](N)CO)C(C)C)C(=O)N[C@@H](Cc1ccccc1)C(=O)N[C@@H](CCCCN)C(N)=O` [SFK] (H-SYWVRASGGGFFFLSRIFK-NH2), the “MIC S. aureus 1882” value in data set [1] turned out to be 2 µM (≈ 4.45 µg/mL). In [2], the “MIC S. aureus 6538” value was found to be 4 µM (≈ 8.9 µg/mL). Moreover, in [3], the “MIC S. epidermidis 12228” value was greater than 64 µM. In addition, the “MIC E. coli 25922” value in data set [4] is greater than 64 µM. Also, the “MIC E. coli K88” value in data set [5] turned out to be 32 µM (≈ 71.2 µg/mL). In data set [6], the “MIC E. coli K99” value came out at 64 µM (≈ 142 µg/mL). The “MIC P. aeruginosa 15442” value in data set [7] was greater than 64 µM. For the same molecule, in data set [8], the “MIC P. aeruginosa 27853” value is greater than 64 µM. Also, the MHC result in data set [9] is listed as “>128 μM”.
For `CC[C@H](C)[C@H](NC(=O)[C@H](CCCNC(=N)N)NC(=O)[C@H](CO)NC(=O)[C@H](CC(C)C)NC(=O)[C@H](Cc1ccccc1)NC(=O)[C@H](Cc1ccccc1)NC(=O)[C@H](Cc1ccccc1)NC(=O)CNC(=O)CNC(=O)CNC(=O)[C@H](CO)NC(=O)[C@H](C)NC(=O)[C@H](CCCNC(=N)N)NC(=O)[C@@H](NC(=O)[C@H](Cc1c[nH]c2ccccc12)NC(=O)[C@H](Cc1ccc(O)cc1)NC(=O)[C@@H](N)CO)C(C)C)C(=O)N[C@@H](Cc1ccccc1)C(=O)N[C@@H](CCCNC(=N)N)C(=O)N[C@@H](CCCNC(=N)N)C(N)=O` [SFR2] (H-SYWVRASGGGFFFLSRIFRR-NH2), in data set [1], the “MIC S. aureus 1882” value worked out at 1 µM (≈ 2.41 µg/mL). Also, the “MIC S. aureus 6538” value in [2] is 4 µM (≈ 9.64 µg/mL). The “MIC S. epidermidis 12228” value in data set [3] is greater than 64 µM. The “MIC E. coli 25922” value in data set [4] is greater than 64 µM. In addition, the “MIC E. coli K88” value in data set [5] came to 32 µM (≈ 77.1 µg/mL). Moreover, the “MIC E. coli K99” value in data set [6] stood at 64 µM (≈ 154 µg/mL). Moreover, the “MIC P. aeruginosa 15442” value in data set [7] was greater than 64 µM. The “MIC P. aeruginosa 27853” value in [8] was greater than 64 µM. Also, the MHC entry in [9] was “>128 μM”.
For the molecule `CC[C@H](C)[C@H](NC(=O)[C@H](CCCNC(=N)N)NC(=O)[C@H](CO)NC(=O)[C@H](CC(C)C)NC(=O)[C@H](Cc1ccccc1)NC(=O)[C@H](Cc1ccccc1)NC(=O)[C@H](Cc1ccccc1)NC(=O)CNC(=O)CNC(=O)CNC(=O)[C@H](CO)NC(=O)[C@H](C)NC(=O)[C@H](CCCNC(=N)N)NC(=O)[C@@H](NC(=O)[C@H](Cc1c[nH]c2ccccc12)NC(=O)[C@H](Cc1ccc(O)cc1)NC(=O)[C@@H](N)CO)C(C)C)C(=O)N[C@@H](Cc1ccccc1)C(=O)N[C@@H](CCCNC(=N)N)C(=O)N[C@@H](CCCNC(=N)N)C(=O)N[C@@H](CCCNC(=N)N)C(N)=O` [SFR3] (H-SYWVRASGGGFFFLSRIFRRR-NH2), the “MIC S. aureus 1882” value in data set [1] was determined as 4 µM (≈ 10.3 µg/mL). The “MIC S. aureus 6538” value in [2] stood at 16 µM (≈ 41 µg/mL). Further, the “MIC S. epidermidis 12228” value in data set [3] is greater than 64 µM. Also, the “MIC E. coli 25922” value in data set [4] is greater than 64 µM. The “MIC E. coli K88” value in data set [5] is 32 µM (≈ 82.1 µg/mL). Moreover, the “MIC E. coli K99” value in [6] is greater than 64 µM. The “MIC P. aeruginosa 15442” value in [7] is greater than 64 µM. In addition, the “MIC P. aeruginosa 27853” value in [8] was greater than 64 µM. In data set [9], the MHC result is “>128 μM”.
For the molecule `CC[C@H](C)[C@H](NC(=O)[C@H](CCCNC(=N)N)NC(=O)[C@H](CO)NC(=O)[C@H](CC(C)C)NC(=O)[C@H](Cc1ccccc1)NC(=O)[C@H](Cc1ccccc1)NC(=O)[C@H](Cc1ccccc1)NC(=O)CNC(=O)CNC(=O)CNC(=O)[C@H](CO)NC(=O)[C@H](C)NC(=O)[C@H](CCCNC(=N)N)NC(=O)[C@@H](NC(=O)[C@H](Cc1c[nH]c2ccccc12)NC(=O)[C@H](Cc1ccc(O)cc1)NC(=O)[C@@H](N)CO)C(C)C)C(=O)N[C@@H](Cc1ccccc1)C(=O)N[C@@H](CCCNC(=N)N)C(N)=O` [SFR] (H-SYWVRASGGGFFFLSRIFR-NH2), in data set [1], the “MIC S. aureus 1882” value came to 2 µM (≈ 4.51 µg/mL). The “MIC S. aureus 6538” value in data set [2] is 2 µM (≈ 4.51 µg/mL). The “MIC S. epidermidis 12228” value in data set [3] is greater than 64 µM. For the same molecule, the “MIC E. coli 25922” value in [4] is greater than 64 µM. The “MIC E. coli K88” value in data set [5] is 32 µM (≈ 72.1 µg/mL). The “MIC E. coli K99” value in data set [6] was 32 µM (≈ 72.1 µg/mL). The “MIC P. aeruginosa 15442” value in data set [7] is greater than 64 µM. Further, the “MIC P. aeruginosa 27853” value in data set [8] was greater than 64 µM. Further, the MHC result in [9] is on record as “>128 μM”.
Regarding `CC[C@H](C)[C@H](NC(=O)[C@H](CCCNC(=N)N)NC(=O)[C@H](CO)NC(=O)[C@H](CC(C)C)NC(=O)[C@H](Cc1ccccc1)NC(=O)[C@H](Cc1ccccc1)NC(=O)[C@H](Cc1ccccc1)NC(=O)CNC(=O)CNC(=O)CNC(=O)[C@H](CO)NC(=O)[C@H](C)NC(=O)[C@H](CCCNC(=N)N)NC(=O)[C@@H](NC(=O)[C@H](Cc1c[nH]c2ccccc12)NC(=O)[C@H](Cc1ccc(O)cc1)NC(=O)[C@@H](N)CO)C(C)C)C(=O)N[C@@H](Cc1ccccc1)C(N)=O` [SF] (H-SYWVRASGGGFFFLSRIF-NH2), the “MIC S. aureus 1882” value in [1] amounted to 2 µM (≈ 4.19 µg/mL). For the same molecule, the “MIC S. aureus 6538” value in [2] is 16 µM (≈ 33.5 µg/mL). Besides, in [3], the “MIC S. epidermidis 12228” value is greater than 64 µM. Moreover, the “MIC E. coli 25922” value in data set [4] is greater than 64 µM. The “MIC E. coli K88” value in data set [5] is greater than 64 µM. In [6], the “MIC E. coli K99” value is greater than 64 µM. The “MIC P. aeruginosa 15442” value in data set [7] is greater than 64 µM. Also, the “MIC P. aeruginosa 27853” value in [8] is greater than 64 µM. Moreover, the MHC entry in [9] is “>128 μM”.
In the case of `O=C(O)c1cn(C2CC2)c2cc(N3CCNCC3)c(F)cc2c1=O` [ciprofloxacin], the “Fold increase of MIC compared with the initial value” in data set [10] (Day 9, sub-MIC passaging) is given as 16 fold. Besides, in data set [10] (end of the trial (30 days), sub-MIC passaging), the “MIC relative to the initial value” was found to be 2560 times.

For the origin of these results see PMC11211671, “Phage‐displayed heptapeptide sequence conjugation significantly improves the specific targeting ability of antimicrobial peptides against Staphylococcus aureus” (mLife, 2024).
